How the values were obtained:
[1] = tested on: Tyrosine-protein kinase ABL1 (Homo sapiens), P00519 [F317L]; conditions: Compound concentration 100.0 nM
[2] = tested on: Tyrosine-protein kinase ABL1 (Homo sapiens), P00519 [T315I]; conditions: Compound concentration 100.0 nM
[3] = tested on: Tyrosine-protein kinase ABL1 (Homo sapiens), P00519 [Y253F]; conditions: Compound concentration 100.0 nM
[4] = target: Tyrosine-protein kinase ABL1 (Homo sapiens) (UniProt P00519); conditions: Compound concentration 100.0 nM
[5] = target: Activin receptor type-2A (Homo sapiens) (UniProt P27037); conditions: Compound concentration 100.0 nM
[6] = tested on: ALK tyrosine kinase receptor (Homo sapiens), Q9UM73 [L1196M]; conditions: Compound concentration 100.0 nM
[7] = target: Mitogen-activated protein kinase kinase kinase 5 (Homo sapiens) (UniProt Q99683); conditions: Compound concentration 100.0 nM
[8] = target: Aurora kinase B (Homo sapiens) (UniProt Q96GD4); conditions: Compound concentration 100.0 nM
[9] = target: Serine/threonine-protein kinase BRSK2 (Homo sapiens) (UniProt Q8IWQ3); conditions: Compound concentration 100.0 nM
[10] = target: Mitotic checkpoint serine/threonine-protein kinase BUB1 (Homo sapiens) (UniProt O43683); conditions: Compound concentration 100.0 nM
[11] = target: Calcium/calmodulin-dependent protein kinase kinase 2 (Homo sapiens) (UniProt Q96RR4); conditions: Compound concentration 100.0 nM
[12] = target: Cyclin-dependent kinase 4 (Homo sapiens) (UniProt P11802); conditions: Compound concentration 100.0 nM
[13] = target: Cyclin-dependent kinase-like 1 (Homo sapiens) (UniProt Q00532); conditions: Compound concentration 100.0 nM
[14] = target: Ephrin type-A receptor 1 (Homo sapiens) (UniProt P21709); conditions: Compound concentration 100.0 nM
[15] = target: Mitogen-activated protein kinase 1 (Homo sapiens) (UniProt P28482); conditions: Compound concentration 100.0 nM
[16] = target: Serine/threonine-protein kinase/endoribonuclease IRE1 (Homo sapiens) (UniProt O75460); conditions: Compound concentration 100.0 nM
[17] = target: Fibroblast growth factor receptor 1 (Homo sapiens) (UniProt P11362); conditions: Compound concentration 100.0 nM
[18] = tested on: Receptor-type tyrosine-protein kinase FLT3 (Homo sapiens), P36888 [D835Y]; conditions: Compound concentration 100.0 nM
[19] = tested on: eIF-2-alpha kinase GCN2 (Homo sapiens), Q9P2K8 [S808G]; conditions: Compound concentration 100.0 nM
[20] = target: G protein-coupled receptor kinase 3 (Homo sapiens) (UniProt P35626); conditions: Compound concentration 100.0 nM
[21] = target: Interleukin-1 receptor-associated kinase 1 (Homo sapiens) (UniProt P51617); conditions: Compound concentration 100.0 nM
[22] = tested on: Mast/stem cell growth factor receptor Kit (Homo sapiens), P10721 [D816H]; conditions: Compound concentration 100.0 nM
[23] = target: MAP kinase-activated protein kinase 2 (Homo sapiens) (UniProt P49137); conditions: Compound concentration 100.0 nM
[24] = target: Dual specificity mitogen-activated protein kinase kinase 3 (Homo sapiens) (UniProt P46734); conditions: Compound concentration 100.0 nM
[25] = target: Serine/threonine-protein kinase MRCK beta (Homo sapiens) (UniProt Q9Y5S2); conditions: Compound concentration 100.0 nM
[26] = target: Mitogen-activated protein kinase 12 (Homo sapiens) (UniProt P53778); conditions: Compound concentration 100.0 nM
[27] = target: Platelet-derived growth factor receptor alpha (Homo sapiens) (UniProt P16234); conditions: Compound concentration 100.0 nM
[28] = target: 3-phosphoinositide-dependent protein kinase 1 (Homo sapiens) (UniProt O15530); conditions: Compound concentration 100.0 nM
[29] = target: Phosphatidylinositol 4,5-bisphosphate 3-kinase catalytic subunit beta isoform (Homo sapiens) (UniProt P42338); conditions: Compound concentration 100.0 nM
[30] = target: Interferon-induced, double-stranded RNA-activated protein kinase (Homo sapiens) (UniProt P19525); conditions: Compound concentration 100.0 nM
[31] = target: cAMP-dependent protein kinase catalytic subunit PRKX (Homo sapiens) (UniProt P51817); conditions: Compound concentration 100.0 nM
[32] = target: Serine/threonine-protein kinase PRP4 homolog (Homo sapiens) (UniProt Q13523); conditions: Compound concentration 100.0 nM
[33] = target: Receptor-interacting serine/threonine-protein kinase 4 (Homo sapiens) (UniProt P57078); conditions: Compound concentration 100.0 nM
[34] = target: Rho-associated protein kinase 2 (Homo sapiens) (UniProt O75116); conditions: Compound concentration 100.0 nM
[35] = target: Ribosomal protein S6 kinase alpha-1 (Homo sapiens) (UniProt Q15418); conditions: Compound concentration 100.0 nM
[36] = target: Proto-oncogene tyrosine-protein kinase Src (Homo sapiens) (UniProt P12931); conditions: Compound concentration 100.0 nM
[37] = target: Serine/threonine-protein kinase 16 (Homo sapiens) (UniProt O75716); conditions: Compound concentration 100.0 nM
[38] = target: Mitogen-activated protein kinase kinase kinase 7 (Homo sapiens) (UniProt O43318); conditions: Compound concentration 100.0 nM
[39] = target: Tyrosine-protein kinase receptor Tie-1 (Homo sapiens) (UniProt P35590); conditions: Compound concentration 100.0 nM
[40] = target: High affinity nerve growth factor receptor (Homo sapiens) (UniProt P04629); conditions: Compound concentration 100.0 nM
[41] = target: Serine/threonine-protein kinase ULK1 (Homo sapiens) (UniProt O75385); conditions: Compound concentration 100.0 nM
[42] = target: 5-hydroxytryptamine receptor 1B (Homo sapiens) (UniProt P28222); conditions: Compound concentration 10.0 uM
[43] = target: 5-hydroxytryptamine receptor 3A (Homo sapiens) (UniProt P46098); conditions: Compound concentration 10.0 uM
[44] = target: Kappa-type opioid receptor (Homo sapiens, UniProt P41145); conditions: Compound concentration 10.0 uM
[45] = target: Alpha-2C adrenergic receptor (Homo sapiens) (UniProt P18825); conditions: Compound concentration 10.0 uM

Sequence of cAMP-dependent protein kinase catalytic subunit PRKX (Homo sapiens) (P51817 whole entry): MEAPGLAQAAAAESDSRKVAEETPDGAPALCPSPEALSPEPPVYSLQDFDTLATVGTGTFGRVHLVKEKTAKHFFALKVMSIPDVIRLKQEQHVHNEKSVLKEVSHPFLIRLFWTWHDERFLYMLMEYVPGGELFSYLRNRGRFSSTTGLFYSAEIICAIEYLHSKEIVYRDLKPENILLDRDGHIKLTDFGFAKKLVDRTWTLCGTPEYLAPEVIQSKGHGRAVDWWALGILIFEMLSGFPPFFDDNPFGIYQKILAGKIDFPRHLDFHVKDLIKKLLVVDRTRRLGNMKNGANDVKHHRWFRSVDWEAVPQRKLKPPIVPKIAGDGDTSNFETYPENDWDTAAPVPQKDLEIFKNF
Sequence of G protein-coupled receptor kinase 3 (Homo sapiens) (P35626 whole entry): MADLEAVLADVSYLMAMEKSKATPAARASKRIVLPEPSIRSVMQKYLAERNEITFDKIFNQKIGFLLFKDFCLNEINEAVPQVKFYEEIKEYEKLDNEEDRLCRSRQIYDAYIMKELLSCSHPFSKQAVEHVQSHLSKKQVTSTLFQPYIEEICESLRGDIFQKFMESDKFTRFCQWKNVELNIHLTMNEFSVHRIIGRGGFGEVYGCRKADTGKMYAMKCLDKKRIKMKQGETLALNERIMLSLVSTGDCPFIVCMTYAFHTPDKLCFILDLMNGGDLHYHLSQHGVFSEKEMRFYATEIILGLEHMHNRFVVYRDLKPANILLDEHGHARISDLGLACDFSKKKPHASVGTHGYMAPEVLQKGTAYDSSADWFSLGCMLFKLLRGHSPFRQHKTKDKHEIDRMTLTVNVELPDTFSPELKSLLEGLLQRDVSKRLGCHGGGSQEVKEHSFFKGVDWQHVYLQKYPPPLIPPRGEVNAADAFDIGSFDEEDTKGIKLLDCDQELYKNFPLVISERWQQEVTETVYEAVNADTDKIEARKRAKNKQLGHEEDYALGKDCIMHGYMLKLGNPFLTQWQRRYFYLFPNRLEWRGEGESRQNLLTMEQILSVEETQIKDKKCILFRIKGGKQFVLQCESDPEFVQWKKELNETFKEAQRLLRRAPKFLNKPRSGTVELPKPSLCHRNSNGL
Sequence of MAP kinase-activated protein kinase 2 (Homo sapiens) (P49137 whole entry, looked up): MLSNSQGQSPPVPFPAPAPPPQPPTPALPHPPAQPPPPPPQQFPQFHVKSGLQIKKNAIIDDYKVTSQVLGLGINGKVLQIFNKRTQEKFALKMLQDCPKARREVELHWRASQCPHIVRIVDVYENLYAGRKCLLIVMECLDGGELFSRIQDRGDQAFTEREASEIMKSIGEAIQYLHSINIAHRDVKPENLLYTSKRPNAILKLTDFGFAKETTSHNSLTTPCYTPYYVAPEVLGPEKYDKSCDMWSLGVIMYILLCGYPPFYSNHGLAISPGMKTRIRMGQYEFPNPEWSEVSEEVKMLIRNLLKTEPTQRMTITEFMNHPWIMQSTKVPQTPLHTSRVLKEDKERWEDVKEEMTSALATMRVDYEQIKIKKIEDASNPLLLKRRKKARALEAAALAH
Sequence of Fibroblast growth factor receptor 1 (Homo sapiens) (P11362 22-822 limits assumed): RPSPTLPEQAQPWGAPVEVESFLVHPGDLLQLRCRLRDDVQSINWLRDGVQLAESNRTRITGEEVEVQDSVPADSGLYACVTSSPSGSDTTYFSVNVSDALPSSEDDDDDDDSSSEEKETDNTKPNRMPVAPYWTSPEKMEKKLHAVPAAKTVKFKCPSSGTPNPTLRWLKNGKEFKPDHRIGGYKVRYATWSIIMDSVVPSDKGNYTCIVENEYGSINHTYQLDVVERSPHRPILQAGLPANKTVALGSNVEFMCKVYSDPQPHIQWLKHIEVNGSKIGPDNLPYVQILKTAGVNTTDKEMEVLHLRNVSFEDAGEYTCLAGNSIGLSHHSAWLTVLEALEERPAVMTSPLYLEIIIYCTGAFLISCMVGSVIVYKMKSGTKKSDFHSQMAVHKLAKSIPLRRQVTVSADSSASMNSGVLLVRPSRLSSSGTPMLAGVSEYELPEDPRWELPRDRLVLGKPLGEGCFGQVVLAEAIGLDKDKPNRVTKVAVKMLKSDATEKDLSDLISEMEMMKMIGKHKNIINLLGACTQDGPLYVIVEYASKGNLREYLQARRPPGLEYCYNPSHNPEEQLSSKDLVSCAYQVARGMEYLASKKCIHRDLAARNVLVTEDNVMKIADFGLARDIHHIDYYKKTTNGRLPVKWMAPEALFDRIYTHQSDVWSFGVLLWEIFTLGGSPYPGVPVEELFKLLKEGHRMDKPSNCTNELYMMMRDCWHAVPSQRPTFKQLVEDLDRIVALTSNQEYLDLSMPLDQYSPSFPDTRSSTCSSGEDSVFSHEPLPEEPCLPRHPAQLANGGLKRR
Sequence of Aurora kinase B (Homo sapiens) (Q96GD4 whole entry): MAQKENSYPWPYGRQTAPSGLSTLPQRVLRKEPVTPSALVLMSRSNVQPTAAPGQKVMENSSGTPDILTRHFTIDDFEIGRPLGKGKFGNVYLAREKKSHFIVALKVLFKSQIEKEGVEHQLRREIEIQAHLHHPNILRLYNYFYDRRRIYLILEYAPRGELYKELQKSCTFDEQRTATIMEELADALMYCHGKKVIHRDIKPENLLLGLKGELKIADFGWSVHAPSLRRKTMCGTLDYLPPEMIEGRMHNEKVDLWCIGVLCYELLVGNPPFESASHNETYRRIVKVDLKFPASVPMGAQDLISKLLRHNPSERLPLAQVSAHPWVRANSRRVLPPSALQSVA
Sequence of Dual specificity mitogen-activated protein kinase kinase 3 (Homo sapiens) (P46734 whole entry): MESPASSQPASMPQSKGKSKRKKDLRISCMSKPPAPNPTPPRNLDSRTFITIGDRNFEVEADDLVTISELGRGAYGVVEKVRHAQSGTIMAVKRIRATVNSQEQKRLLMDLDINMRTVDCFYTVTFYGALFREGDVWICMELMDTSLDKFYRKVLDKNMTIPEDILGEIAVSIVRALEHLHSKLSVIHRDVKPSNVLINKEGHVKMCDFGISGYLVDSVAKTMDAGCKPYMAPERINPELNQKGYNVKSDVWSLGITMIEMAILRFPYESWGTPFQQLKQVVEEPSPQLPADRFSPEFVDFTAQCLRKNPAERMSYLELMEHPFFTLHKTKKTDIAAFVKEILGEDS
Sequence of Calcium/calmodulin-dependent protein kinase kinase 2 (Homo sapiens) (Q96RR4 2-588 limits assumed): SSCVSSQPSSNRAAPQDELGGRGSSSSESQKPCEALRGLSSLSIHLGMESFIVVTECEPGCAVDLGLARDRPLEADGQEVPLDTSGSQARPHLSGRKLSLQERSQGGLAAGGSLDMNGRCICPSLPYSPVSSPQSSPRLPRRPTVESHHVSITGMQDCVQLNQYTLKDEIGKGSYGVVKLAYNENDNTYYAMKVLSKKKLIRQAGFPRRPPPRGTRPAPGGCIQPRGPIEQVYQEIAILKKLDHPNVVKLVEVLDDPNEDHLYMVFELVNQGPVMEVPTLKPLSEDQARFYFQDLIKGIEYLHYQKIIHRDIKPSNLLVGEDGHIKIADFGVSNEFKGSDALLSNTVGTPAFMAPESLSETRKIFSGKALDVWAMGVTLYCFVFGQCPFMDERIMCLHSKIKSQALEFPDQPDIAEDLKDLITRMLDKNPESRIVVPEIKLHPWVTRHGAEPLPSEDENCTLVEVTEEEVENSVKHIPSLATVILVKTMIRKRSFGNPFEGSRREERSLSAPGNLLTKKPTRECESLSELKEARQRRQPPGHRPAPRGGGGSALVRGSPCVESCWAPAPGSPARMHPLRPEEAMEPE
Sequence of Serine/threonine-protein kinase 16 (Homo sapiens) (O75716 whole entry): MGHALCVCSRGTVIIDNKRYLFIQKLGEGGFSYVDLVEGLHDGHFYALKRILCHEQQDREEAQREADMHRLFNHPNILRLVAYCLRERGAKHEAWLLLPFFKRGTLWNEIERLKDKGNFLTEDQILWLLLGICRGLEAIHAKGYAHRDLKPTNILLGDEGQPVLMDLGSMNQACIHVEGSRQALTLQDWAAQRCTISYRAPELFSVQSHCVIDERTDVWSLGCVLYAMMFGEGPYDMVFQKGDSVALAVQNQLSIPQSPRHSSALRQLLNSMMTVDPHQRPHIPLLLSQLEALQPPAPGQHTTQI
Sequence of Serine/threonine-protein kinase BRSK2 (Homo sapiens) (Q8IWQ3 whole entry): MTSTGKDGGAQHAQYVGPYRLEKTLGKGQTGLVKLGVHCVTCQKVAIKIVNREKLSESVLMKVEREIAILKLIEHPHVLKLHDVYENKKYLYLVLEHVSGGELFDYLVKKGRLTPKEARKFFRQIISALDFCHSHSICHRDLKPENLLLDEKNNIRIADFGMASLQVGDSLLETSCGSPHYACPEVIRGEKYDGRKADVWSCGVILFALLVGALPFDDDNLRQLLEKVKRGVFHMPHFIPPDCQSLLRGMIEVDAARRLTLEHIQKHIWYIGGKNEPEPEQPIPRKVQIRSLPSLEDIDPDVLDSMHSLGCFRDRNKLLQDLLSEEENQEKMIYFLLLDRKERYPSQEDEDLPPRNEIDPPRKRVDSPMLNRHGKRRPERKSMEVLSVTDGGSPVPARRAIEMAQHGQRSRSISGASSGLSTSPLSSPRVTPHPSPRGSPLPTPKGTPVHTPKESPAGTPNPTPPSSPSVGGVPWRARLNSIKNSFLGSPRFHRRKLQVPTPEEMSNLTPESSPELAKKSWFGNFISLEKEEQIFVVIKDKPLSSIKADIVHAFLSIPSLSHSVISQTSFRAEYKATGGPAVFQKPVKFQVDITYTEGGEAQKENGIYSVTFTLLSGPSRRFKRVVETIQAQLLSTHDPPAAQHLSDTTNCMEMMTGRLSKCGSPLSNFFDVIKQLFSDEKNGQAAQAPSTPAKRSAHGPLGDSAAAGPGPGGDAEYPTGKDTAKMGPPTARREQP
Sequence of Cyclin-dependent kinase 4 (Homo sapiens) (P11802 whole entry): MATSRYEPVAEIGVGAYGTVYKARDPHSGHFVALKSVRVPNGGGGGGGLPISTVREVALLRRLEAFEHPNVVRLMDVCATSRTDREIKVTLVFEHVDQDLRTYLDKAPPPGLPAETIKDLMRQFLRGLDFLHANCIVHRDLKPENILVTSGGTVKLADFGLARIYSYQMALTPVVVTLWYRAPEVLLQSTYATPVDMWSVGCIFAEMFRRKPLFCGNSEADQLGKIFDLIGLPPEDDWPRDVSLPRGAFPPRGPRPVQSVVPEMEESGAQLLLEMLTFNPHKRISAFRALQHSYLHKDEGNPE

For O=C(NCCCC1CCCCC1)c1ccc(CNC(=O)c2cnn(-c3ccccc3)c2C(F)(F)F)cc1 [SR-321], the residual activity [1] was 100%, the residual activity [2] was 100% and the residual activity [3] was 98%. It also gave a residual activity [4] of 93%, a residual activity [5] of 83% and a residual activity [6] of 100%. For the same molecule, the residual activity [7] was 91%, the residual activity [8] was 95% and the residual activity [9] was 100%. For the same molecule, the residual activity [10] was 100%, the residual activity [11] was 100% and the residual activity [12] was 100%. It also gave a residual activity [13] of 80%, a residual activity [14] of 100% and a residual activity [15] of 93%. The residual activity [16] was 94%, the residual activity [17] was 100% and the residual activity [18] was 100%. The residual activity [19] was 100%, the residual activity [20] was 100% and the residual activity [21] was 100%. It also gave a residual activity [22] of 78%, a residual activity [23] of 100% and a residual activity [24] of 100%. For the same molecule, the residual activity [25] was 100%, the residual activity [26] was 100% and the residual activity [27] was 92%. For the same molecule, the residual activity [28] was 100%, the residual activity [29] was 100% and the residual activity [30] was 64%. The residual activity [31] was 100%, the residual activity [32] was 100% and the residual activity [33] was 58%. The residual activity [34] was 100%, the residual activity [35] was 100% and the residual activity [36] was 100%. For the same molecule, the residual activity [37] was 100%, the residual activity [38] was 89% and the residual activity [39] was 100%. The residual activity [40] was 100%, the residual activity [41] was 100% and the inhibition [42] was 9.89%. The inhibition [43] was 5.72%, the inhibition [44] was 80.2% and the inhibition [45] was 3.68%.
For Nc1c(C(=O)NCc2ccc(C(=O)NCCCC3CCCCC3)cc2)cnn1-c1ccccc1 [SR-318], the residual activity [1] was 100%, the residual activity [2] was 100% and the residual activity [3] was 100%. It also gave a residual activity [4] of 81%, a residual activity [5] of 100% and a residual activity [6] of 100%. It also gave a residual activity [7] of 81%, a residual activity [8] of 81% and a residual activity [9] of 79%. The residual activity [10] was 86%, the residual activity [11] was 100% and the residual activity [12] was 100%. It also gave a residual activity [13] of 100%, a residual activity [14] of 100% and a residual activity [15] of 100%. For the same molecule, the residual activity [16] was 100%, the residual activity [17] was 71% and the residual activity [18] was 100%. The residual activity [19] was 100%, the residual activity [20] was 100% and the residual activity [21] was 86%. The residual activity [22] was 61%, the residual activity [23] was 100% and the residual activity [24] was 85%. It also gave a residual activity [25] of 100%, a residual activity [26] of 100% and a residual activity [27] of 100%. It also gave a residual activity [28] of 100%, a residual activity [29] of 100% and a residual activity [30] of 54%. It also gave a residual activity [31] of 87%, a residual activity [32] of 100% and a residual activity [33] of 100%. It also gave a residual activity [34] of 100%, a residual activity [35] of 100% and a residual activity [36] of 100%. It also gave a residual activity [37] of 100%, a residual activity [38] of 100% and a residual activity [39] of 100%. It also gave a residual activity [40] of 100%, a residual activity [41] of 100% and an inhibition [42] of 10.4%. It also gave an inhibition [43] of -0.42%, an inhibition [44] of 38.6% and an inhibition [45] of 18.1%.
